Data set [1] relates to human Factor 7 mRNA. The data set is described as follows: Inhibition of human Factor 7 mRNA by 2-10-2 MOE shortmers in HepB3 cells, electroporation, 1,000 nM. It counts as cell-based. The conditions noted are these: electroporation, 1,000 nM oligonucleotide, approximately 24 hours, relative to untreated control cells. Put shortly:
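14-mer 2-10-2 2′-MOE gapmers, full phosphorothioate, 5-methylcytidines, electroporated at 1,000 nM into HepB3 cells (20,000/well). After ~24 h, mRNA quantified by real-time RT-PCR, normalized to RIBOGREEN total RNA; percent inhibition relative to untreated cells.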

The test system of data set [2] is intrinsic pathway of blood coagulation. The data set is described as follows: Activated Partial Thromboplastin Time (aPTT) in platelet poor plasma of treated mice, reported as INR. It counts as in vivo, mouse. Here is the method: Prothrombin Time (PT) and Activated Partial Thromboplastin Time (aPTT) were measured using platelet poor plasma (PPP) from mice treated with ISIS 403102. PT and aPTT values provided in Table 20 are reported as International Normalized Ratio (INR) values. INR values for PT and aPTT were determined by dividing the PT or aPTT value for the experimental group by the PT or aPTT for the PBS treated group. This ratio was then raised to the power of the International Sensitivity Index (ISI) of the tissue factor used.
Prothrombin Time (PT) and Activated Partial Thromboplastin Time (aPTT) were measured using platelet poor plasma (PPP) from mice treated with ISIS 403102. PT and aPTT values provided in Table 22 are reported as International Normalized Ratio (INR) values. INR values for PT and aPTT were determined by dividing the PT or aPTT value for the experimental group (i.e. 50 mg/kg treatment with ISIS 403102) by the PT or aPTT for the PBS treated group. This ratio was then raised to the power of the International Sensitivity Index (ISI) of the tissue factor used.
Prothrombin Time (PT) and Activated Partial Thromboplastin Time (aPTT) were measured using platelet poor plasma (PPP) from mice treated with ISIS 403102. PT and aPTT values provided in Table 24 are reported as International Normalized Ratio (INR) values. INR values for PT and aPTT were determined by dividing the PT or aPTT value for the experimental group (i.e. 50 mg/kg treatment with ISIS 403102) by the PT or aPTT for the PBS treated group. This ratio was then raised to the power of the International Sensitivity Index (ISI) of the tissue factor used.

In the oligonucleotide strings, read from the 5' end, every base follows the letter of its sugar. An asterisk marks phosphorothioate; unmarked linkages are phosphodiester. Other units and linkages are bracketed, terminal groups are in braces. A string of capitals states the bases alone. e = 2'-O-(2-methoxyethyl) (MOE); [5mC] = 5-methylcytosine; d = 2'-deoxy (DNA)

In the case of “407939 (antisense eT*eG*e[5mC]*eA*eG*d[5mC]*d[5mC]*d[5mC]*dG*dG*d[5mC]*dA*d[5mC]*d[5mC]*d[5mC]*eA*eG*e[5mC]*eG*eA) [compound 407939]”, in data set [1], the “% inhibition of human Factor 7 mRNA” value is 81%.

On to “CCATAGAACAGCTTCACAGG (sugars from the 5' end e5 d10 e5, backbone and methylation of C not given here) [ISIS 403102]”, for which the “aPTT INR” value amounted to 1.05 in data set [2] (BALB/c mice, 5 mg/kg s.c. twice a week for 3 weeks); 1.04 in data set [2] (BALB/c mice, 10 mg/kg s.c. twice a week for 3 weeks); 1.09 in data set [2] (BALB/c mice, 25 mg/kg s.c. twice a week for 3 weeks); 1.16 in data set [2] (BALB/c mice, 50 mg/kg s.c. twice a week for 3 weeks); 1.08 in data set [2] (BALB/c mice, 50 mg/kg, 1 dose, 1 day after last dose); 1.10 in data set [2] (BALB/c mice, 50 mg/kg, 1 dose, 3 days after last dose). For the same substance, the “aPTT INR” value in data set [2] (BALB/c mice, 50 mg/kg, 2 doses, 3 days after last dose) came to 1.29; in data set [2] (BALB/c mice, 50 mg/kg, 4 doses, 3 days after last dose), 1.53; in data set [2] (BALB/c mice, 50 mg/kg, 6 doses, 2 days after last dose), 1.62; in data set [2] (BALB/c mice, 50 mg/kg, 6 doses, 7 days after last dose), 1.67; in data set [2] (BALB/c mice, 50 mg/kg, 6 doses, 14 days after last dose), 1.25; in data set [2] (BALB/c mice, 50 mg/kg, 6 doses, 28 days after last dose), 0.90. Further, the “aPTT INR” value stood at 1.00 in data set [2] (BALB/c mice, 50 mg/kg, 6 doses, 42 days after last dose); 0.98 in data set [2] (BALB/c mice, 50 mg/kg, 6 doses, 56 days after last dose); 1.00 in data set [2] (BALB/c mice, single dose 50 mg/kg, day 1); 1.05 in data set [2] (BALB/c mice, single dose 50 mg/kg, day 2); 1.24 in data set [2] (BALB/c mice, single dose 50 mg/kg, day 3); 1.15 in data set [2] (BALB/c mice, single dose 50 mg/kg, day 4). For the same substance, the “aPTT INR” value stood at 1.23 in data set [2] (BALB/c mice, single dose 50 mg/kg, day 6); 1.18 in data set [2] (BALB/c mice, single dose 50 mg/kg, day 8); 1.18 in data set [2] (BALB/c mice, single dose 50 mg/kg, day 12); 1.02 in data set [2] (BALB/c mice, single dose 50 mg/kg, day 24); 0.97 in data set [2] (BALB/c mice, single dose 50 mg/kg, day 56); 1.24 INR in data set [2] (single dose 50 mg/kg, day 4). In addition, the “aPTT INR” value is recorded as 0.97 INR in data set [2] (single dose 50 mg/kg, day 56) and 1.00 INR in data set [2] (single dose 50 mg/kg, starting value (day not given, day 1 implied)). Besides, the “aPTT compared to the control” value in data set [2] (Example 11, 5-50 mg/kg sc twice a week for 3 weeks) is listed as “slightly prolonged”. For the same substance, the aPTT over time result in data set [2] (Example 13, 6 doses, day 7 to day 56) was “aPTT decreased”.

Source of the values: US20120214862A1, “MODULATION OF FACTOR 7 EXPRESSION” (ISIS Pharmaceuticals, Inc., priority 2009, published 2012).
